Results: ChEMBL document CHEMBL3046619, “Peroxidizing Phytotoxicities of 1, 2-Dialkyl-1, 2, 4-triazolidines and 3, 4-Dialkyl-1, 3, 4-thiadiazolidines” (J Pestic Sci, 1997)

target: T1, Protoporphyrinogen IX oxidase (Zea mays, UniProt Q9FYV8); test: Inhibition of Zea mays (maize) protoporphyrinogen IX oxidase; details: read-out: pI50 (converted)
T1 sequence (Q9FYV8 whole entry): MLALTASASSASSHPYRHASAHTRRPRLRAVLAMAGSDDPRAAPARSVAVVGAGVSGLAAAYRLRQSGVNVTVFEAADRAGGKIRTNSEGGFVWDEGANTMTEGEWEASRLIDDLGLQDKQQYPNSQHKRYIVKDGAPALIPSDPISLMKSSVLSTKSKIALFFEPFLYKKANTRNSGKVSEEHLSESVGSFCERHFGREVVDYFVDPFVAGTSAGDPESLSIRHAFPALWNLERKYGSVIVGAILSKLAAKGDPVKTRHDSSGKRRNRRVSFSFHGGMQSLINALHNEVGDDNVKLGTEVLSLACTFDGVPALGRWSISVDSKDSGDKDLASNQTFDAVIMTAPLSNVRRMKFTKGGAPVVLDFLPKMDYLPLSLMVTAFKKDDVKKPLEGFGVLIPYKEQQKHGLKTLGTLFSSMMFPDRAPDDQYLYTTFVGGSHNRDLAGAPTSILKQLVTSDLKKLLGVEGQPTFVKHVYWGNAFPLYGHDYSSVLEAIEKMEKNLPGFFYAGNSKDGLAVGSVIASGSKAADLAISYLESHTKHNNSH

SMILES	IC50 [µM]
CCn1c(=S)s/c(=N\c2ccc(Br)cc2)n1CC	4.27
O=C1C2=C(CCCC2)C(=O)N1c1ccc(Cl)cc1 [CHLOROPHTHALIUM]	0.0501
CCn1c(=O)n(-c2ccc(Br)cc2)c(=S)n1CC	0.832
CCCn1c(=O)n(-c2ccc(Br)cc2)c(=S)n1CCC	24.5
O=c1[nH][nH]c(=S)n1-c1ccc(Br)cc1	72.4
Cn1c(=O)s/c(=N\c2ccc(Br)cc2)n1C	3.72
Cn1c(=O)n(-c2ccc(Br)cc2)c(=S)n1C	0.282
Cn1c(=S)s/c(=N\c2ccc(Br)cc2)n1C	3.09
S=c1n(-c2ccc(Br)cc2)c(=S)n2n1CCC2	0.0347
Cn1c(=O)n(-c2ccc(Br)cc2)c(=O)n1C	12.9
CCn1c(=S)n(-c2ccc(Br)cc2)c(=S)n1CC	1.38

More lines, now with the values ahead:

IC50 [µM]	SMILES
0.11	Cn1c(=S)n(-c2ccc(Br)cc2)c(=S)n1C
0.01	S=c1n(-c2ccc(Br)cc2)c(=S)n2n1CCCC2
0.129	S=c1n(-c2ccc(Br)cc2)c(=S)n2n1CCCCC2
36.3	CCn1c(=O)n(-c2ccc(Br)cc2)c(=O)n1CC
8.71	CCn1c(=O)s/c(=N\c2ccc(Br)cc2)n1CC
